# Source: PMC4848495, “Identification of a Potent and Broad-Spectrum Hepatitis C Virus Fusion Inhibitory Peptide from the E2 Stem Domain” (Scientific Reports, 2016)
# Residues, ends and D or L forms follow the SMILES beside them.
# Assays:
# [1] = tested on: VSV-G-pseudotyped lentivirus; type: cell-based
# JFH-1 HCVcc = experiment: Virus pre-treatment (virocidal) assay; conditions: 1 μM, 2 h at 37 °C, unbound peptide removed by ultracentrifugation, then infection of Huh7.5.1 cells
# Text: After removal of the unbound peptide, the viruses were resuspended and used to infect naïve Huh7.5.1 cells.
# E1/E2 glycoproteins = experiment: Co-immunoprecipitation of E27 with E1 or E2; type: binding, Hepatitis C virus; conditions: Myc-tagged E27 co-expressed with Flag-tagged E1 or E2, anti-Flag immunoprecipitation
# Method: (§1) Figure 5 Effect of E27 on E1E2 heterodimerization. (a) Analysis of the E1E2 heterodimer by native-PAGE. A plasmid expressing the E27 peptide or a scramble control peptide was co-transfected into Huh7.5.1 cells with a plasmid encoding E1E2. The single E1 or E2 plasmid was used as the control. At 24 h post-transfection, cells were lysed for Western blotting using antibodies recognizing E1 or E2. (b,c) Interaction between the E27 and E1/E2 glycoproteins was determined by co-immunoprecipitation. A plasmid expressing Myc-tagged E27 was co-expressed with either Flag-tagged E1 (b) or Flag-tagged E2 (c). Cell lysates were immunoprecipitated with an anti-Flag antibody and detected with an anti-Myc antibody or an anti-E1- or E2 antibody. The empty Flag vector was used as a negative control.
# (§2) For cell lysate preparation, monolayer cells were lysed on ice with lysis buffer supplemented with protease inhibitor cocktail (Sigma or Pierce). After electrophoresis, the separated proteins were transferred onto a nitrocellulose membrane (Bio-Rad, Hercules, CA), blocked with 10% milk for 1 h, and incubated with the primary antibody overnight at 4 °C. The secondary antibody used was a 1:2000 dilution of HRP-linked anti-IgG. The ECL reagent (Amersham Biosciences, Piscataway, NJ) was used as the substrate for detection. […]
# [2] = tested on: CLDN1, OCLND, CD81 and SR-BI in Huh7 cells; experiment: Co-receptor expression and localization (immunofluorescence, Western blotting); type: cell-based, human; conditions: 1 μM 24 h (staining), 0, 0.1, 1 or 5 μM (Western blotting)
# Method: Figure 4 E27 affects neither HCV co-receptor localization nor expression levels. (a) DMSO and E27 (1 μM) were added to Huh7 cells and allowed to incubate for 24 h. CLDN1, OCLND, CD81 and SR-BI were stained with corresponding antibodies (green), and nuclei (blue) were stained with DAPI. (b) Huh7 cells were treated with 0, 0.1, 1 or 5 μM of E27, and the expression levels of CLDN1, OCLND, CD81 and SR-BI were analyzed by Western blotting. The expression of β-actin was also analyzed as a loading control.
# Immunostaining of Huh7 cells was performed using antibodies against CLDN1, OClD, SR-BI or CD81 as previously descriped. Images were captured on a Leica SPW5 confocal microscope. Nucleus was stained with DAPI.
# as §2, with “detection. For immunoprecipitation-coupled Western blotting, cleared cell lysates were immunoprecipitated with anti-FLAG M2 affinity resin (Sigma) and washed with lysis buffer.” for “detection.”
# [3] = tested on: HCV entry into Huh7.5.1 cells; experiment: Time-of-addition assays; type: cell-based, Hepatitis C virus; conditions: 1 μM
# Method: Next, to further corroborate that E27 targets HCV fusion, we sought to define the steps of HCV cell entry targeted by E27. […] In addition, we added E27 to Huh7.5.1 cells at different time intervals during the early phase of HCV infection. Three different time-points assays were conducted: cells were exposed to HCV for 1 h at 4 °C (attachment/binding period). Virus was removed, and the cells were washed with serum-free medium and incubated at 4 °C for another 1 h (postattachment/binding period). The cells were then washed and incubated for 1 h at 37 °C (endocytosis/fusion period). Finally, the cells were washed and incubated in 10% FBS-containing culture medium for 24 h, E27 was added at one of these steps. […] Moreover, we compared inhibitory kinetics between E27 and bafilomycin A1, a well-recognized inhibitor of fusion during virus infection.
# Huh7.5.1 cells were seeded at 8 × 10^4 cells/well in 24-well plates. The next day, virus inoculum was added to the plates, which were then incubated at 4 °C for 1 h. Unbound virus was removed by 3 washes with cold medium. The cells were then shifted to 37 °C and incubated. The specified inhibitors were added at specific time points during infection and were either removed by washing after two hours or added back as described in the Figure legends. Firefly luciferase activity was quantified at 48 h post-infection. The experiments were performed in triplicate.
# E1E2 heterodimer = E1E2 heterodimer analysis by native-PAGE / Western blotting; type: cell-based, Hepatitis C virus; conditions: E27 expressed from plasmid co-transfected with E1E2 in Huh7.5.1 cells, 24 h
# Method: as §1, §2
# Huh7.5.1 cells = experiment: Cytotoxicity assay (MTT); type: cell-based, human
# Method: Huh7.5.1 cells were treated with E27 for the indicated concentration and period of time. After removal of E27, cells were incubated for an additional 48 h in 24-well plates. Cytotoxicity was determined using the MTT Cell Viability Assay Kit from R&D Systems (Minneapolis, MN, USA).
# [4] = tested on: HCV full-length genotype 1b replicon-containing cell line (2-3+); type: cell-based, Hepatitis C virus; conditions: replicon cells, 1 μM, 48 h
# [5] = tested on: HCV glycoprotein E1E2-mediated membrane fusion; experiment: cell-based; type: cell-based, Hepatitis C virus (strain H77)
# [6] = biological target: HCV glycoprotein E1E2-mediated membrane fusion (Hepatitis C virus genotype 1a, UniProt P27958); experiment: cell-based; type: cell-based, Hepatitis C virus (strain H77); conditions: cell-cell fusion assay (Supplementary Fig. S3)
# HCVcc (Jc1-luc) = conditions: Huh7.5.1 cells, various concentration ratios, CalcuSyn
# Method: Huh7.5.1 cells were infected with HCVccs (Jc1-luc) and treated with combinations of E27 and Telaprevir, Danoprevir, Ribavirin, Sofosbuvir or Simeprevir. The cells were lysed for a luciferase assay after 48 h. The calculated EC90 values for the combinations were plotted as the fractional concentration (FC) of E27 and one of Telaprevir, Danoprevir, Ribavirin, Sofosbuvir or Simeprevir on the x and y axes, respectively.
# The effects of drug combinations were evaluated using Huh7.5.1 cells and the computer software CalcuSyn (Biosoft, Cambridge, United Kingdom). Dose inhibition curves of two different drugs were plotted together; for each drug combination, the EC90 values of several combinations of two different drugs were plotted as the fractional concentration (FC) of both drugs on the x and y axes. […] Combination indexes (CIs) were calculated at the EC50, EC75, and EC90 values using CalcuSyn. A CI value of less than 0.9 indicates synergy, a CI value ranging from 0.9 to 1.1 indicates additivity, and a CI value of more than 1.1 indicates antagonism.
# [7] = tested on: HCVpp packaged with E1E2 from genotypes 1–6; experiment: HCVpp entry assay; type: cell-based, Hepatitis C virus; conditions: HCVpp system and HCVcc system (Fig. 8A,B)
# Chain of HCV glycoprotein E1E2-mediated membrane fusion (Hepatitis C virus genotype 1a, UniProt P27958) (P27958 384-746): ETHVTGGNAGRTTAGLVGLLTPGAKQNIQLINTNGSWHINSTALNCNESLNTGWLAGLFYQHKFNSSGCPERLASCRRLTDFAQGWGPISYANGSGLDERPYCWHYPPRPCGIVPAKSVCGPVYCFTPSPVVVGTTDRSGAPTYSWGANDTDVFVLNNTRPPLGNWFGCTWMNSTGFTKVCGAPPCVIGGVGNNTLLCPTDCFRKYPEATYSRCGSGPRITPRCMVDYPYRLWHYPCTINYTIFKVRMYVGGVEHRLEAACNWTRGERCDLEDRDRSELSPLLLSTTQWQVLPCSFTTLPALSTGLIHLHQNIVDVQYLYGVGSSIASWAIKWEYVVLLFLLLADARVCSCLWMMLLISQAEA
# Chain of HCV glycoprotein E1E2-mediated membrane fusion (Hepatitis C virus genotype 1a, UniProt P27958) (P27958 192-383): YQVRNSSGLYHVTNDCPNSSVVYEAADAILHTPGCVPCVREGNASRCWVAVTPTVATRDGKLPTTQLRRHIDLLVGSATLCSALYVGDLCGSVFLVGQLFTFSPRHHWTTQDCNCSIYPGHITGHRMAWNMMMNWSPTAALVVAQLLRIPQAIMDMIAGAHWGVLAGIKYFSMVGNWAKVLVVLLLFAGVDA
compound,measurement,setting,value
CC[C@H](C)[C@H](NC(=O)[C@H](CC(C)C)NC(=O)CNC(=O)[C@@H](NC(=O)[C@H](CO)NC(=O)[C@H](CC(C)C)NC(=O)[C@H](C)NC(=O)[C@@H]1CCCN1C(=O)[C@H](CC(C)C)NC(=O)[C@@H](NC(=O)[C@@H](NC(=O)[C@H](Cc1ccccc1)NC(=O)[C@H](CO)NC(=O)[C@H](CS)NC(=O)[C@@H]1CCCN1C(=O)[C@H](CC(C)C)NC(=O)[C@@H](NC(=O)[C@H](CCC(N)=O)NC(=O)[C@H](Cc1c[nH]c2ccccc12)NC(=O)[C@@H](N)CCC(N)=O)C(C)C)[C@@H](C)O)[C@@H](C)O)[C@@H](C)O)C(=O)N[C@@H](Cc1c[nH]cn1)C(=O)N[C@@H](CC(C)C)C(=O)N[C@@H](Cc1c[nH]cn1)C(=O)N[C@@H](CCC(N)=O)C(=O)N[C@@H](CC(N)=O)C(=O)N[C@H](C(=O)N[C@H](C(=O)N[C@@H](CC(=O)O)C(=O)N[C@H](C(=O)N[C@@H](CCC(N)=O)C(=O)N[C@@H](Cc1ccc(O)cc1)C(=O)N[C@@H](CC(C)C)C(=O)N[C@@H](Cc1ccc(O)cc1)C(=O)NCC(=O)N[C@H](C(=O)O)C(C)C)C(C)C)C(C)C)[C@@H](C)CC [E27] (H-QWQVLPCSFTTLPALSTGLIHLHQNIVDVQYLYGV-OH; N-terminus and C-terminus assumed),inhibition of entry of VSV-G–pseudotyped lentivirus,[1],did not inhibit
same,virocidal effect on HCV,JFH-1 HCVcc,no virocidal effect
same,interaction with E1 or E2,E1/E2 glycoproteins,neither E1 nor E2 interact independently with E27
same,effect on subcellular distribution and expression of co-receptors,[2],no detectable effect
same,inhibition when added during the attachment or binding step,[3]; 1 h at 4 °C,no inhibition was observed
same,inhibition when added together with the virus or within 2 h of infection,"[3]; HCVpp, Huh7.5.1 cells, luciferase at 48 h",best inhibitory activity
same,inhibition when added prior to infection,"[3]; added 2 or 4 h prior to HCVpp inoculation and removed, luciferase at 48 h",no inhibition was observed
same,inhibition of HCV infection when added during the late entry step,"[3]; endocytosis/fusion period, 1 h at 37 °C",strong inhibition
same,effect on E1E2 heterodimers,E1E2 heterodimer,significant decrease
same,CC50,Huh7.5.1 cells,180.3 µM
same,effect on intracellular HCV core protein level,[4]; Western blotting,no impact
same,effect on HCV RNA replication,[4]; qRT-PCR,no impact
same,susceptibility of E1-1 and E1-9 mutated E1E2 to E27 in the fusion assay,[5],markedly increased resistance
same,suppression of wild-type E1E2-mediated fusion,[6],efficiently suppressed
CC(C)OC(=O)[C@H](C)N[P@](=O)(OC[C@H]1O[C@@H](n2ccc(=O)[nH]c2=O)[C@](C)(F)[C@@H]1O)Oc1ccccc1 [Sofosbuvir],effect on inhibition of HCV infection in combination with E27,HCVcc (Jc1-luc),slight antagonism
CCC[C@H](NC(=O)[C@@H]1[C@H]2CCC[C@H]2CN1C(=O)[C@@H](NC(=O)[C@@H](NC(=O)c1cnccn1)C1CCCCC1)C(C)(C)C)C(=O)C(=O)NC1CC1 [Telaprevir],effect on inhibition of HCV infection in combination with E27,HCVcc (Jc1-luc),slightly synergistic trend
"CSFTTLP ALSTGLIHLHQNIVDVQYLYGV [E27-2, E27 shortened by 6 aa from the N-terminus, residues 7-35]",antiviral activity compared to the parental peptide,[7],slightly increased
